The numbers were not newly measured in patent US20240207266A1, “METHODS FOR TREATING AND MONITORING PARKINSON'S DISEASE” (Denali Therapeutics Inc., priority 2021, published 2024), which cites them from elsewhere.

Molecules are shown by their SMILES.

The data set relates to di-22:6-BMP. The note with it: monkeys; Fuji 2015, Baptista 2020; cited from earlier work.

Consider `CNc1nc(Nc2cn(C(C)(C)C#N)nc2C)ncc1C(F)(F)F` [GNE-0877], for which the “urine di-22:6-BMP” value is “decreased”.

In the case of `CCNc1nc(Nc2cc(F)c(C(=O)N3CCOCC3)cc2OC)ncc1C(F)(F)F` [GNE-7915], the “urine di-22:6-BMP” value was “decreased”.
